According to patent publication US10940139B2, “Compounds that interact with the Ras superfamily for the treatment of cancers, inflammatory diseases, rasopathies, and fibrotic disease” (Shy Therapeutics LLC, priority 2017, dated 2021):
Like-named read-outs stand apart in the source and are kept apart here.

Columns and labels:
Test in all cases: Ras GTP binding domain inhibition assay (labeled GTP)
KRas G12D mutant protein = KRas G12D mutant protein (Homo sapiens (Human), UniProt P01116, G12D); settings: 20 μM compound
KRas G12D mutant protein, sequence (P01116-2 other isoform, or with tags, fused parts or gaps G12D): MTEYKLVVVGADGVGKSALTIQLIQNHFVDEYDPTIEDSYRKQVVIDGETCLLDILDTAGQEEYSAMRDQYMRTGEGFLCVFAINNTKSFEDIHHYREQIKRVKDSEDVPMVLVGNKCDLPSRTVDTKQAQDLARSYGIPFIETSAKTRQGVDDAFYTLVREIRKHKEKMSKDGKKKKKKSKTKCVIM

KRas G12C mutant = KRas G12C mutant (Homo sapiens (Human), UniProt P01116, G12C); settings: 20 μM compound
KRas G12C mutant, sequence (P01116-2 other isoform, or with tags, fused parts or gaps G12C): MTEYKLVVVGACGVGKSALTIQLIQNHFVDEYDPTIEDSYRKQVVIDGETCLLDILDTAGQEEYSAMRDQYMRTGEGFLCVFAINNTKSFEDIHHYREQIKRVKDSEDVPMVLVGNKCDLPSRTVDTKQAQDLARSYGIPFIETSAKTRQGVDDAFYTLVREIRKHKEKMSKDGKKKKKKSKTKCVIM
Method in brief: (§1)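 His-tagged KRas protein (3-10 μg/ml) was captured overnight at 4° C on nickel-coated wells in 50 mM Tris pH 7.5, 1 mM MgCl2, 1 mM DTT. Bound labeled GTP was read by fluorescence after washing.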

[1] = molecular target: KRas G12C/Q61H double mutant (Homo sapiens (Human), UniProt P01116, G12C/Q61H); settings: 20 μM compound
KRas G12C/Q61H double mutant, sequence (P01116-2 other isoform, or with tags, fused parts or gaps G12C/Q61H): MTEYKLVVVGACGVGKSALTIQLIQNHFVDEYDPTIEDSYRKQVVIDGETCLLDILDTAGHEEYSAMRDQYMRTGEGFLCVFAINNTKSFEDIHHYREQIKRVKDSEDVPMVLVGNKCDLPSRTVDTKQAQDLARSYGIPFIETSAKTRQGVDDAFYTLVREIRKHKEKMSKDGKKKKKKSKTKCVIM
Method in brief: as §1

[2] = molecular target: KRas G12D/Q61H double mutant (Homo sapiens (Human), UniProt P01116, G12D/Q61H); settings: for IC50: serial dilution, read-out: KRas G12D Q61H (classes E-H, IC50)
KRas G12D/Q61H double mutant, sequence (P01116-2 other isoform, or with tags, fused parts or gaps G12D/Q61H): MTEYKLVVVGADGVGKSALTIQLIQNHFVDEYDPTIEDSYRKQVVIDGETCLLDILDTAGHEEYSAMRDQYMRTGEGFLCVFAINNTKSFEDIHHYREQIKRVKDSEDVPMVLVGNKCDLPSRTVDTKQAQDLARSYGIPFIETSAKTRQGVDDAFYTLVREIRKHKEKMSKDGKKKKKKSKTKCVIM
Method in brief: as §1

KRas Q61H mutant = KRas Q61H mutant (Homo sapiens (Human), UniProt P01116, Q61H); settings: 20 μM compound
KRas Q61H mutant, sequence (P01116-2 other isoform, or with tags, fused parts or gaps Q61H): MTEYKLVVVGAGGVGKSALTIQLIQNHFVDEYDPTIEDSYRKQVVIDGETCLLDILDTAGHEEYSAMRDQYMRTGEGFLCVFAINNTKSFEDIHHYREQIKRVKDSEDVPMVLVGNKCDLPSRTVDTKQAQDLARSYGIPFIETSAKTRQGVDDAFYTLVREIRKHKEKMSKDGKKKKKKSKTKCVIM
Method in brief: as §1

KRas wild type = KRas wild type (Homo sapiens (Human), UniProt P01116); settings: 20 μM compound
KRas wild type, sequence (P01116-2 other isoform, or with tags, fused parts or gaps): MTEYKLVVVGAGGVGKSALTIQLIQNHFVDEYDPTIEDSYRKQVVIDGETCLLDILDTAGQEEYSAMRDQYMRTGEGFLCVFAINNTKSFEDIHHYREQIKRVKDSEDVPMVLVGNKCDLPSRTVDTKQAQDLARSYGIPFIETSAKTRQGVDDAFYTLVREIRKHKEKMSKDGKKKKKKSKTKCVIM
Method in brief: as §1

[3] = read-out: % Inhibition at 20 μM KRas G12D
[4] = read-out: % Inhibition at 20 μM KRas G12C
[5] = read-out: % Inhibition at 20 μM KRas G12C Q61H
[6] = 20 μM compound, read-out: % Inhibition at 20 μM KRas G12D Q61H
[7] = read-out: % Inhibition at 20 μM KRas Q61H
[8] = read-out: % Inhibition at 20 μM KRas wild type
[9] = KRas G12D, read-out: % Inhibition at 20 μM of K-Ras mutant and wild-type protein, KRas G12D
[10] = KRas G12C, read-out: % Inhibition at 20 μM of K-Ras mutant and wild-type protein, KRas G12C
[11] = KRas G12C/Q61H double mutant, read-out: % Inhibition at 20 μM of K-Ras mutant and wild-type protein, KRas G12C Q61H
[12] = 20 μM compound, KRas G12D/Q61H double mutant, read-out: % Inhibition at 20 μM of K-Ras mutant and wild-type protein, KRas G12D Q61H
[13] = KRas Q61H, read-out: % Inhibition at 20 μM of K-Ras mutant and wild-type protein, KRas Q61H
[14] = KRas wild type, read-out: % Inhibition at 20 μM of K-Ras mutant and wild-type protein, KRas wild type

SMILES | inhibition at 20 µM (KRas G12D mutant protein; [3]) [%] | inhibition at 20 µM (KRas G12C mutant; [4]) [%] | inhibition at 20 µM [1, 5] [%] | inhibition at 20 µM [2, 6] [%] | inhibition at 20 µM (KRas Q61H mutant; [7]) [%] | inhibition at 20 µM (KRas wild type; [8]) [%] | inhibition at 20 µM (KRas G12D mutant protein; [9]) [%] | inhibition at 20 µM (KRas G12C mutant; [10]) [%] | inhibition at 20 µM [1, 11] [%] | inhibition at 20 µM [2, 12] [%] | inhibition at 20 µM (KRas Q61H mutant; [13]) [%] | inhibition at 20 µM (KRas wild type; [14]) [%] | further results
CC1CN(c2ccccc2)CCN1C(=O)c1csc2c(O)nc(-c3ccccn3)nc12 (stereo not shown) [drawing 2761] | 76 to 100 | 51 to 75 | 76 to 100 | 51 to 75 | 76 to 100 | 25 to 50 |  |  |  |  |  |  | IC50 [2]: 5 to 10 µM
N#Cc1ccc(COCC(=O)Nc2nc(-c3ccccn3)nc3sccc23)cc1 [drawing 2799] | 76 to 100 | 25 to 50 | 76 to 100 | 25 to 50 | 76 to 100 | 25 to 50 |  |  |  |  |  |  | IC50 [2]: 11 to 30 µM
O=C(c1csc2c(O)nc(-c3ccccn3)nc12)N1CCC(c2cccc(O)c2)C1 (stereo not shown) [drawing 2840] | 76 to 100 | 51 to 75 | 76 to 100 | 76 to 100 | 76 to 100 | 51 to 75 |  |  |  |  |  |  | 
Oc1nc(-c2ccccn2)nc2c(C3CCCC3)csc12 [drawing 3495] |  |  |  |  |  |  | 51 to 75 | 25 to 50 | 51 to 75 | 51 to 75 | 51 to 75 | 25 to 50 | 
COCc1ccc(-c2csc3c(O)nc(-c4ccccn4)nc23)cc1F [drawing 2846] | 51 to 75 | 51 to 75 | 51 to 75 | 51 to 75 | 51 to 75 | 25 to 50 |  |  |  |  |  |  | 
Oc1nc(-c2ccccn2)nc2c(-c3ccc4c(c3)CCCO4)csc12 [drawing 2902] | 51 to 75 | 25 to 50 | 25 to 50 | 25 to 50 | 51 to 75 | 25 to 50 |  |  |  |  |  |  | 
CN(C)Cc1ccc(F)c(-c2csc3c(O)nc(-c4ccccn4)nc23)c1 [drawing 2901] | 51 to 75 | 25 to 50 | 51 to 75 | 25 to 50 | 51 to 75 | 51 to 75 |  |  |  |  |  |  | IC50 [2]: 11 to 30 µM
Cc1sc2c(O)nc(-c3ccccn3)nc2c1C(=O)N1CCN(c2ccccc2)CC1C (stereo not shown) [drawing 3509] |  |  |  |  |  |  | 51 to 75 | 51 to 75 | 51 to 75 | 51 to 75 | 51 to 75 | 25 to 50 | 
Oc1nc(-c2ccccn2)nc2c(-c3ccc4c(c3)OCO4)csc12 [drawing 2879] | 51 to 75 | 25 to 50 | 51 to 75 | 51 to 75 | 51 to 75 | 51 to 75 |  |  |  |  |  |  | 
O=C(c1csc2c(O)nc(-c3ccccn3)nc12)N1CCNC(c2cn[nH]c2)C1 (stereo not shown) [drawing 2858] | 25 to 50 | 25 to 50 | 51 to 75 | 51 to 75 | 76 to 100 | 25 to 50 |  |  |  |  |  |  | 
Cc1sc2c(O)nc(-c3ccccn3)nc2c1-c1cccnc1 [drawing 3468] |  |  |  |  |  |  | 51 to 75 | 25 to 50 | 51 to 75 | 25 to 50 | 51 to 75 | 25 to 50 | 
Cc1cc2nc(-c3ccccn3)nc(N)c2s1 [drawing 2836] | 51 to 75 | 1 to 25 | 51 to 75 | 51 to 75 | 51 to 75 | 25 to 50 |  |  |  |  |  |  | 
CCC(C)c1csc2c(OC)nc(-c3ccccn3)nc12 (stereo not shown) [drawing 3471] |  |  |  |  |  |  | 25 to 50 | 25 to 50 | 51 to 75 | 51 to 75 | 51 to 75 | 25 to 50 | 
COc1cnc(-c2cn(C)cn2)nc1O [drawing 3512] |  |  |  |  |  |  |  |  |  |  |  |  | % Inhibition at 20 μM of K-Ras mutant and wild-type protein, KRas G12D (KRas G12D mutant protein; KRas G12D): C (51-75% inhibition); % Inhibition at 20 μM of K-Ras mutant and wild-type protein, KRas G12C (KRas G12C mutant; KRas G12C): C (51-75% inhibition); % Inhibition at 20 μM of K-Ras mutant and wild-type protein, KRas G12C Q61H ([1]; KRas G12C/Q61H double mutant): C (51-75% inhibition); % Inhibition at 20 μM of K-Ras mutant and wild-type protein, KRas G12D Q61H ([2]; 20 μM compound, KRas G12D/Q61H double mutant): C (51-75% inhibition); % Inhibition at 20 μM of K-Ras mutant and wild-type protein, KRas Q61H (KRas Q61H mutant; KRas Q61H): D (76-100% inhibition); % Inhibition at 20 μM of K-Ras mutant and wild-type protein, KRas wild type (KRas wild type; KRas wild type): B (25-50% inhibition)
Oc1nc(-c2ccccn2)nc2c(-c3ccccc3Cl)csc12 [drawing 2695] | 25 to 50 | 25 to 50 | 51 to 75 | 51 to 75 | 51 to 75 | 1 to 25 |  |  |  |  |  |  | 

Further lines, with some results ahead:

inhibition at 20 µM (KRas G12D mutant protein; [3]) [%] | inhibition at 20 µM (KRas G12C mutant; [4]) [%] | inhibition at 20 µM [1, 5] [%] | inhibition at 20 µM [2, 6] [%] | inhibition at 20 µM (KRas Q61H mutant; [7]) [%] | inhibition at 20 µM (KRas wild type; [8]) [%] | inhibition at 20 µM (KRas G12D mutant protein; [9]) [%] | inhibition at 20 µM (KRas G12C mutant; [10]) [%] | inhibition at 20 µM [1, 11] [%] | inhibition at 20 µM [2, 12] [%] | inhibition at 20 µM (KRas Q61H mutant; [13]) [%] | inhibition at 20 µM (KRas wild type; [14]) [%] | SMILES | further results
 |  |  |  |  |  | 51 to 75 | 51 to 75 | 51 to 75 | 51 to 75 | 51 to 75 | 25 to 50 | Oc1nc(-c2ccccn2)nc2c(CC3CCNC3)csc12 (stereo not shown) [drawing 3526] | 
 |  |  |  |  |  | 51 to 75 | 25 to 50 | 25 to 50 | 51 to 75 | 25 to 50 | 51 to 75 | Oc1nc(-c2ccccn2)nc2cc(-c3ccccc3)sc12 [drawing 3562] | 
51 to 75 | 25 to 50 | 76 to 100 | 51 to 75 | 51 to 75 | 51 to 75 |  |  |  |  |  |  | O=C(CCc1cncnc1)Nc1nc(-c2ccccn2)nc2sccc12 [drawing 2891] | 
 |  |  |  |  |  | 51 to 75 | 25 to 50 | 25 to 50 | 51 to 75 | 25 to 50 | 51 to 75 | Oc1nc(-c2ccccn2)nc2cc(-c3ccncc3)sc12 [drawing 3561] | 
51 to 75 | 51 to 75 | 76 to 100 | 51 to 75 | 76 to 100 | 51 to 75 |  |  |  |  |  |  | O=C(COCc1cccnc1)Nc1nc(-c2ccccn2)nc2sccc12 [drawing 2829] | 
51 to 75 | 25 to 50 | 51 to 75 | 51 to 75 | 76 to 100 | 51 to 75 |  |  |  |  |  |  | Oc1nc(-c2ccccn2)nc2scc(Br)c12 [drawing 2703] | 
51 to 75 | 25 to 50 | 76 to 100 | 51 to 75 | 76 to 100 | 51 to 75 |  |  |  |  |  |  | COc1ccnc(-c2nc(O)c3c(Cl)csc3n2)c1 [drawing 2800] | IC50 [2]: 11 to 30 µM
 |  |  |  |  |  | 25 to 50 | 25 to 50 | 51 to 75 | 25 to 50 | 51 to 75 | 1 to 25 | COc1ccc(COC[C@H]2O[C@@H](c3csc4c(=O)[nH]c(-c5ccccn5)nc34)[C@H](O)[C@@H]2O)cc1 [drawing 3533] | 
51 to 75 | 51 to 75 | 51 to 75 | 51 to 75 | 51 to 75 | 25 to 50 |  |  |  |  |  |  | COc1ccc(-c2csc3c(O)nc(-c4ccccn4)nc23)c(C)c1 [drawing 2881] | 
 |  |  |  |  |  | 25 to 50 | 1 to 25 | 51 to 75 | 51 to 75 | 51 to 75 | 1 to 25 | Cc1sc2c(O)nc(-c3ccccn3)nc2c1C(=O)N1CCN(Cc2cccc(O)c2)CC1 [drawing 3510] | 
51 to 75 | 25 to 50 | 25 to 50 | 25 to 50 | 25 to 50 | 25 to 50 |  |  |  |  |  |  | COc1ccccc1-c1csc2c(O)nc(-c3ccccn3)nc12 [drawing 2870] | 
